Reference: US5583147A, “Amides for the treatment of atherosclerosis” (The Dupont Merck Pharmaceutical Company, priority 1994, dated 1996)

target: T1, Acyl-CoA: Cholesterol Acyltransferase (ACAT) (Rattus norvegicus, UniProt Q7TQM4); assay: Inhibition of Acyl-CoA: Cholesterol Acyltransferase (ACAT) in Hepatic Microsomes (In Vitro Assay); format: biochemical, rat (male Sprague Dawley); settings: 75 μM 14C-oleoyl-CoA, pH 7.4, 37° C., 10 min, read-out: ACAT Inhibitory Activity (In Vitro) (IC50)
T1 construct: centrifuged at 105,000×g for 1 hour to pellet the microsomes; from tissue; host or cells: liver microsomes of male Sprague Dawley rats
T1 sequence (Q7TQM4 1-524): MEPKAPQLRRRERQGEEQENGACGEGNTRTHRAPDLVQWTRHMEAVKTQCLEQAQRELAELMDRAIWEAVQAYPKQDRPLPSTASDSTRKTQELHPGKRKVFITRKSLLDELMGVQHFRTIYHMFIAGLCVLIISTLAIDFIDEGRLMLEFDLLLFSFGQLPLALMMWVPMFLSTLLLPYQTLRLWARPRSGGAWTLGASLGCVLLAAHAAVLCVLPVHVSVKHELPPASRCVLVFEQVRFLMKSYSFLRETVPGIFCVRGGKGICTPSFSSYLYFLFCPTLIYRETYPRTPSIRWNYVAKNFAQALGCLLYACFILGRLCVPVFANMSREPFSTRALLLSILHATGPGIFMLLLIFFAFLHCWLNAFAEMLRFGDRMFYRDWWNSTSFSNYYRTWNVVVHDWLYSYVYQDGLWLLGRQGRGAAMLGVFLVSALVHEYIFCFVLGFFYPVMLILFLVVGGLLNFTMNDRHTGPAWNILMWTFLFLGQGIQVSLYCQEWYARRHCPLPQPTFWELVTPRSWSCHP
Description: A. Assay of the Inhibition of Acyl-CoA: Cholesterol Acyltransferase (ACAT) in Hepatic Microsomes (In Vitro Assay)
The ability of the compounds to inhibit ACAT, the enzyme responsible for the intracellular synthesis of cholesteryl esters, was tested as follows. Male Sprague Dawley rats weighing 150-300 g, were fed rat chow ad libitum. The animals were fasted for twenty-four hours prior to being euthanized by CO2. The livers were perfused in situ with 50 ml of cold 0.25 sucrose, excised, and homogenized in three volumes of 0.1M phosphate buffer, pH 7.4, that contained 0.5 mM EDTA (ethylenediamine-tetraacetic acid), 1.0 mM glutathione, 0.25M sucrose and […] leupeptin. Microsomes were obtained by differential centrifugation; the supernatant from an initial spin at 15,000×g for 15 minutes was centrifuged at 105,000×g for 1 hour to pellet the microsomes. The microsomes were suspended in homogenization buffer, reisolated by centrifugation, and stored at -70° C. Microsomes were used within one month of preparation.
The control assay in a final volume of 200 μl consisted of 200 μg of microsomal protein, 75 μM ^14 C-oleoyl-CoA (10,000 dpm/nmol) in 0.1M phosphate, pH 7.4, that contained 1 mM glutathione. Compounds were added in 5 μl of DMSO (dimethyl sulfoxide) and additional controls were run with DMSO only. All components, except the oleoyl-CoA, were preincubated for 15 min. at 37° C. prior to the initiation of the reaction by the addition of oleoyl-CoA. The assay was terminated after 10 min by the addition of 4 ml of chloroform:methanol (2:1, v/v). 20,000 dpm of ^3 H-cholesteryl oleate and 10 μg of unlabeled cholesteryl oleate and oleic acid were added as an internal standard and carriers, respectively. After allowing 10 min. for lipid extraction, the samples were centrifuged at 1,000×g for 10 min to separate the solvent layers. The chloroform layer containing the neutral lipids was spotted onto a Baker SI250-Pa silica gel TLC plate and the plate developed using a hexane:diethyl ether:acetic acid (170:30:1) v/v/v) mobile phase. The lipids were visualized by their interaction with iodine vapor and the cholesteryl ester spot was scraped into a scintillation vial and counted. The specific activity of ACAT in the control incubation averaged 260 pmol/min/mg microsomal protein. The data obtained are expressed as the concentration at which ACAT activity is inhibited by 50% (IC50).

IC50, < 1000 nM:
COc1ccc(C(SCc2ccccc2)C(=O)Nc2c(SC)cc(C)nc2SC)cc1 (stereo not drawn) [Example 122, N-[2,4-bis(methylthio)-6-methyl-3-pyridyl]-α-benzylthio-4-methoxy-phenylacetamide]
CCSC(C(=O)Nc1c(SC)cc(C)nc1SC)c1ccccc1 (single isomer, unassigned) [Example 49, N-[2,4-bis(methylthio)-6-methyl-3-pyridyl]-D-(-)-α-ethylthio-phenylacetamide]
CSc1cc(C)nc(SC)c1NC(=O)C(SCc1ccccc1)c1ccc(Cl)c(Cl)c1 (stereo not drawn) [Example 180, N-[2,4-bis(methylthio)-6-methyl-3-pyridyl]-α-benzylthio-3,4-dichloro-phenylacetamide]
CSc1cc(C)nc(SC)c1NC(=O)C(SCc1ccccc1)c1cccc(Oc2ccccc2)c1 (stereo not drawn) [Example 321, N-[2,4-bis(methylthio)-6-methyl-3-pyridyl]-α-benzylthio-3-phenoxy-phenylacetamide]
CSc1cc(C)nc(SC)c1NC(=O)C(SCc1ccccc1)c1ccccc1 (single isomer, unassigned) [Example 46, N-[2,4-bis(methylthio)-6-methyl-3-pyridyl]-D-(-)-α-benzylthio-phenylacetamide]
CCCCOc1ccc(C(SCc2ccccc2)C(=O)Nc2c(SC)cc(C)nc2SC)cc1 (stereo not drawn) [Example 264, N-[2,4-bis(methylthio)-6-methyl-3-pyridyl]-α-benzylthio-4-butoxy-phenylacetamide]
CSc1cc(C)nc(SC)c1NC(=O)C(SCc1ccc(F)cc1)c1ccc(-c2ccccc2)cc1 (stereo not drawn) [Example 464, N-[2,4-bis(methylthio)-6-methyl-3-pyridyl]-α-(4-fluoro-benzylthio)-4-biphenylacetamide]
CSc1cc(C)nc(SC)c1NC(=O)C(SCc1cccnc1)c1ccc(-c2ccccc2)cc1 (stereo not drawn) [Example 484, N-[2,4-bis(methylthio)-6-methyl-3-pyridyl]-α-(3-pyridyl-methylthio)-4-biphenylacetamide]
CCCCCCSC(C(=O)Nc1c(SC)cc(C)nc1SC)c1ccc2c(c1)OCO2 (stereo not drawn) [Example 515, N-[2,4-bis(methylthio)-6-methyl-3-pyridyl]-α-hexylthio-3,4-methylenedioxyphenylacetamide]
CSc1cc(C)nc(SC)c1NC(=O)C(Sc1ccccc1)c1ccccc1 (single isomer, unassigned) [Example 63, N-[2,4-his (methylthio)-6-methyl-3-pyridyl]-L-(+)-α-phenylthio-phenylacetamide]
CSc1cc(C)nc(SC)c1NC(=O)C(SCc1ccccc1)c1ccc(F)cc1 (stereo not drawn) [Example 152, N-[2,4-bis(methylthio)-6-methyl-3-pyridyl]-α-benzylthio-4-fluoro-phenylacetamide]
CSc1cc(C)nc(SC)c1NC(=O)C(SCc1ccccc1)c1ccc(Cl)cc1 (stereo not drawn) [Example 89, N-[2,4-bis(methylthio)-6-methyl-3-pyridyl]-α-benzylthio-4-chloro-phenylacetamide]
CSc1cc(C)nc(SC)c1NC(=O)C(Sc1ccc(F)cc1)c1ccc(Cl)cc1 (stereo not drawn) [Example 104, N-[2,4-bis(methylthio)-6-methyl-3-pyridyl]-α-(4-fluoro-phenylthio)-4-chloro-phenylacetamide]
CCCCCCSC(C(=O)Nc1c(SC)cc(C)nc1SC)c1ccc(C(C)C)cc1 (stereo not drawn) [Example 403, N-[2,4-bis(methylthio)-6-methyl-3-pyridyl]-α-hexylthio-4-isopropylphenylacetamide]
CSc1cc(C)nc(SC)c1NC(=O)C(SCc1ccccc1)c1ccc(-c2ccccc2)cc1 (stereo not drawn) [Example 463, N-[2,4-bis(methylthio)-6-methyl-3-pyridyl]-α-benzylthio-4-biphenylacetamide]
CC(C)c1cccc(C(C)C)c1NC(=O)C(SCc1ccccc1)c1ccccc1 (single isomer, unassigned) [Example 48, N-(2,6-diisopropyl-phenyl)-D-(-)-α-benzylthio-phenylacetamide]
COc1ccc(SC(C(=O)Nc2c(SC)cc(C)nc2SC)c2ccc(C(F)(F)F)cc2)cc1 (stereo not drawn) [Example 394, N-[2,4-bis(methylthio)-6-methyl-3-pyridyl]-α-(4-methoxy-phenylthio)-4-trifluoromethyl-phenylacetamide]
CSc1cc(C)nc(SC)c1NC(=O)C(SCc1ccc(Cl)cc1)c1cccc(Oc2ccccc2)c1 (stereo not drawn) [Example 325, N-[2,4-bis(methylthio)-6-methyl-3-pyridyl]-α-(4-chloro-benzylthio)-3-phenoxy-phenylacetamide]
COc1ccc(SC(C(=O)Nc2c(SC)cc(C)nc2SC)c2ccc(F)cc2)cc1 (stereo not drawn) [Example 167, N-[2,4-bis(methylthio)-6-methyl-3-pyridyl]-α-(4-methoxy-phenylthio)-4-fluoro-phenylacetamide]
COc1ccc(CSC(C(=O)Nc2c(SC)cc(C)nc2SC)c2ccc(OC)cc2)cc1 (stereo not drawn) [Example 125, N-[2,4-bis(methylthio)-6-methyl-3-pyridyl]-α-(4-methoxy-benzylthio)-4-methoxy-phenylacetamide]
CSc1cc(C)nc(SC)c1NC(=O)C(SCc1ccc(Cl)cc1)c1cccc(Oc2ccc(Br)cc2)c1 (stereo not drawn) [Example 326, N-[2,4-bis(methylthio)-6-methyl-3-pyridyl]-α-(4-chloro-benzylthio)-3-(4'-bromophenoxy)-phenylacetamide]
COc1ccc(CSC(C(=O)Nc2c(SC)cc(C)nc2SC)c2ccc(F)cc2F)cc1 (stereo not drawn) [Example 210, N-[2,4-bis(methylthio)-6-methyl-3-pyridyl]-α-(4-methoxy-benzylthio)-2,4-difluoro-phenylacetamide]
CCCCCCSC(C(=O)Nc1c(SC)cc(C)nc1SC)c1ccc([N+](=O)[O-])cc1 (stereo not drawn) [Example 487, N-[2,4-bis(methylthio)-6-methyl-3-pyridyl]-α-hexylthio-4-nitro-phenylacetamide]
CCCCCCSC(C(=O)Nc1c(SC)cc(C)nc1SC)c1ccc(F)cc1 (stereo not drawn) [Example 148, N-[2,4-bis(methylthio)-6-methyl-3-pyridyl]-α-hexylthio-4-fluoro-phenylacetamide]
CCCCCCSC(C(=O)Nc1c(SC)cc(C)nc1SC)c1ccc(OC)cc1 (stereo not drawn) [Example 118, N-[2,4-bis(methylthio)-6-methyl-3-pyridyl]-α-hexylthio-4-methoxy-phenylacetamide]
CSc1cc(C)nc(SC)c1NC(=O)C(SCc1ccc(F)cc1)c1ccc(F)cc1 (stereo not drawn) [Example 153, N-[2,4-bis(methylthio)-6-methyl-3-pyridyl]-α-(4-fluoro-benzylthio)-4-fluoro-phenylacetamide]
COc1ccc(CSC(C(=O)Nc2c(SC)cc(C)nc2SC)c2ccc(Cl)cc2)cc1 (stereo not drawn) [Example 90, N-[2,4-bis(methylthio)-6-methyl-3-pyridyl]-α-(4-methoxy-benzylthio)-4-chloro-phenylacetamide]
CSc1cc(C)nc(SC)c1NC(=O)C(Sc1ccc(F)cc1)c1ccc(F)cc1 (stereo not drawn) [Example 166, N-[2,4-bis(methylthio)-6-methyl-3-pyridyl]-α-(4-fluoro-phenylthio)-4-fluoro-phenylacetamide]
